Results reported in article PMC12281475, “Mediator Kinase Inhibitor Selectivity and Activity in Colorectal Cancer” (ACS Chemical Biology, 2025).

Tested on: COLO205 cells
Test: Phospho-proteome profiling (CDK-motif antibody enrichment, LC-MS/MS)
Assay type: cell-based, human
Details: 6 H
Source text: We phospho-proteome profiled COLO205 cells to identify Mediator kinase substrates following chemical inhibition of Mediator kinase activity. Given the confirmed CDK8/19 selectivity of our compounds in binding and enzymatic activity assays, we employed a pool of antibodies selective for the proline-rich motifs phosphorylated by the CDK family to enrich potential CDK8/19 substrates for LC-MS/MS analysis.
Adherent COLO205 cells were lysed with a urea buffer, lysates were reduced with DTT, alkylated with iodoacetimide and digested with trypsin-tosylphenylalanyl chloromethyl ketone. Digested peptides were immunoprecipitated using a pool of motif antibodies from Cell Signaling Technologies (US) comprising: phospho-MAPK substrate (PXS*P or S*PXR/K, #2325, RRID:AB_331820), phospho-CDKs substrate ((K/H)-S*P, #2324; RRID:AB_2244779), phospho-PLK binding motif (ST*P, #5243; RRID:AB_10891778) and phospho-tPE motif (T*PE, #3004; RRID:AB_10890649)-of phospho-MAPK (2325), phospho-CDK (2324), phospho-PLK (5243) and phospho-tPE (C3004) motif-recognizing antibodies immobilized onto protein A/G beads. Immunoprecipitated peptides were analyzed using an LTQ-Orbitrap-Velos. Sequences were assigned to the MS/MS spectra and evaluated using SEQUEST 3G and SORCERER 2 (Sage-N Research v4.0, Milpitas). Quantitative data was evaluated and clustered in Spotfire Decision Site (www.spotfire.tibco.com) and normalized using quartile normalization. Functional annotation and pathway analysis used DAVID (https://david.ncifcrf.gov/). […]
Phospho-proteome analyses
Adherent COLO205 cells were washed with PBS and cells lysed using urea lysis buffer (9 M Urea, 20 mM HEPES, pH 8.0, 1 mM beta-glycerophosphate, 1 mM sodium vanadate, 2.5 mM sodium pyrophosphate) and stored at -80 °C prior to analysis. The supernatants were reduced with 100 mM DTT for 30 minutes at 55 °C, followed by alkylation with 50 mM iodoacetimide for 15 minutes at ambient temperature in the dark.
The samples were diluted in 20 mM HEPES, pH 8.0 and digested overnight with 10 ug/mL trypsin-tosylphenylalanyl chloromethyl ketone in 1 mM HCl. Digested peptides were acidified with 1% formic acid and then desalted over 360-mg SEP PAK C18 columns (Waters, UK). Peptides were eluted with 40% acetonitrile in 0.125% formic acid, dried under a vacuum and the lyophilised peptides used for immunoprecipitation.
A pool of motif antibodies from Cell Signaling Technologies (US) comprising: phospho-MAPK substrate (PXS*P or S*PXR/K, #2325, RRID:AB_331820), phospho-CDKs substrate ((K/H)S*P, #2324; RRID:AB_2244779), phospho-PLK binding motif (ST*P, […]
RRID:AB_10890649), were immobilised onto protein A/G beads overnight at 4 °C. The lyophilised peptides were resuspended in MOPS buffer (50 mM MOPS, pH 7.2, 10 mM KH2PO4, 50 mM NaCl) and centrifuged for 5 mins at 13,500 rpm in an Eppendorf benchtop microcentrifuge. The supernatants were incubated with the motif-bound beads for 2.5 hours at 4 °C . The beads were harvested by centrifugation at 4000 rpm in an Eppendorf benchtop microcentrifuge for 5 mins, washed with MOPS buffer twice and washed again 5 times with deionised water. The peptides were eluted off the beads using 0.125% formic acid, were desalted and dried under a vacuum. The lyophilised immunoprecipitated peptides were resuspended in 0.125% formic acid and separated on a capillary column packed with Magic C18 AQ reversed-phase resin.
Peptides were eluted using a 72-minute linear gradient of acetonitrile in 0.125% formic acid delivered at 280nL/min. Samples were analysed using an LTQ-Orbitrap-Velos.
MS Parameter Settings were: MS Run Time 96 min, MS1 Scan Range (300.0 – 1500.00), Top 20 MS/MS (Min Signal 500, Isolation Width 2.0, Normalized Coll.
Charge State Rejection Enabled, Charge State 1+ Rejected, Dynamic Exclusion Enabled, Repeat Count 1, Repeat Duration 35.0, Exclusion List Size 500, Exclusion Duration 40.0, Exclusion Mass Width Relative to Mass, Exclusion Mass Width 10ppm). […]

[1] = FAM122A peptide 69 - hglllpaSpvr - 79
[2] = FBLIM1 peptide 40 - grpweapapmkTpeaglagrpspwttpgr - 68
[3] = FBXW9 peptide 43 - sglafsrpsqlsTpaaSpSasepr - 66
[4] = FBXW9 peptide 48 - srpsqlStpaaSpsasepr - 66
[5] = FOSL1 peptide 235 - ftypStpepcasahr - 249
[6] = GATA6 peptide 26 - afparepStppSpisssssscsr - 48
[7] = GOLGA4 peptide 7 - qkiseeqqqlqqalapaqassnSStptrm#rsr - 39
[8] = HCFC1 peptide 1483 - avttvtqSTpvpgpsvpppeelqvSpgpr - 1511
[9] = HMCES peptide 152 - sgsigaadSpenwek - 166
[10] = HSPA12A peptide 99 - tpttillTper - 109
[11] = INCENP peptide 259 - iaqvSpgprdSpafpdSpwrer - 280
[12] = KANSL1 peptide 955 - ttpqlgSanpSTpqpaSpdvssshslseyShgqSpr - 989
[13] = KIAA1522 peptide 509/569 - rpprSper - 517/576
[14] = KLF6 peptide 140 - lsssvtStppsSpelsrepsqlwgcvpgelpSpgkvr - 176
[15] = KMT2A peptide 3025 - nssTpglqvpvsptvpiqnqk - 3045
[16] = L3MBTL2 peptide 60 - eagelpTSplhllSpgTpr - 78
[17] = LARP4B peptide 725 - rlSreqSTppkSpq - 738
[18] = LASP1 peptide 60 - qsftmvadTpenlr - 73
[19] = LCOR peptide 1212 - arpstkTpessaaqr - 1226
[20] = LIMD1 peptide 190 - wgdkpgvSpSiglsvgsgwpSspgsdpplpkpcgdhplnhr - 230
[21] = LMNA peptide 12 - sgaqaSstplSptr - 25
[22] = LMO7 peptide 595/929 - YngdvedikrTpnnvvSTpapSpdasqlasslssqk - 630/964
[23] = LSM14B peptide 85 - aqhtlpqdpaivqsslgsasaSpfqphvpYSpfr - 118
[24] = MAP7 peptide 668 - vtvesTpdlekqpnengvsvqnenfeeiinlpigskpsr - 706
[25] = MCM4 peptide 38 - rgedststgelqpmptSpgvdlqSpaaqdvl - 68

Cn1cc(-c2ccc(-c3cncc(Cl)c3N3CCC4(CCNC4=O)CC3)cc2)cn1 [CCT251545]
MEAN MS SIGNAL CMPD 1 6 H (EZH2 peptide 46 - grlpnnssrpstpTinvlesk - 376): 31995
CMPD 1/DMSO [1]: 2.184
MEAN MS SIGNAL CMPD 1 6 H [1]: 196079
CMPD 1/DMSO [2]: 0.573
MEAN MS SIGNAL CMPD 1 6 H [2]: 86595
CMPD 1/DMSO [3]: 0.530
MEAN MS SIGNAL CMPD 1 6 H [3]: 311610
CMPD 1/DMSO [4]: 0.400
MEAN MS SIGNAL CMPD 1 6 H [4]: 48006
CMPD 1/DMSO [5]: 0.504
MEAN MS SIGNAL CMPD 1 6 H [5]: 66830
CMPD 1/DMSO [6]: 2.355
MEAN MS SIGNAL CMPD 1 6 H [6]: 187382
CMPD 1/DMSO [7]: 2.322
MEAN MS SIGNAL CMPD 1 6 H [7]: 104624
CMPD 1/DMSO [8]: 0.405
MEAN MS SIGNAL CMPD 1 6 H [8]: 16700
CMPD 1/DMSO [9]: 0.453
MEAN MS SIGNAL CMPD 1 6 H [9]: 63819
CMPD 1/DMSO [10]: 0.556
MEAN MS SIGNAL CMPD 1 6 H [10]: 24367
CMPD 1/DMSO [11]: 0.465
MEAN MS SIGNAL CMPD 1 6 H [11]: 323217
CMPD 1/DMSO [12]: 0.484
MEAN MS SIGNAL CMPD 1 6 H [12]: 12101
CMPD 1/DMSO [13]: 1.797
MEAN MS SIGNAL CMPD 1 6 H [13]: 115710
CMPD 1/DMSO [14]: 0.607
MEAN MS SIGNAL CMPD 1 6 H [14]: 32118
CMPD 1/DMSO [15]: 2.063
MEAN MS SIGNAL CMPD 1 6 H [15]: 28229
CMPD 1/DMSO [16]: 0.490
MEAN MS SIGNAL CMPD 1 6 H [16]: 91427
CMPD 1/DMSO [17]: 2.299
MEAN MS SIGNAL CMPD 1 6 H [17]: 120169
CMPD 1/DMSO [18]: 0.584
MEAN MS SIGNAL CMPD 1 6 H [18]: 786663
CMPD 1/DMSO [19]: 0.545
MEAN MS SIGNAL CMPD 1 6 H [19]: 120796
CMPD 1/DMSO [20]: 0.471
MEAN MS SIGNAL CMPD 1 6 H [20]: 25519
CMPD 1/DMSO [21]: 0.517
MEAN MS SIGNAL CMPD 1 6 H [21]: 46469
CMPD 1/DMSO [22]: 0.463
MEAN MS SIGNAL CMPD 1 6 H [22]: 25654
CMPD 1/DMSO [23]: 0.523
MEAN MS SIGNAL CMPD 1 6 H [23]: 38083
CMPD 1/DMSO [24]: 0.544
MEAN MS SIGNAL CMPD 1 6 H [24]: 159179
CMPD 1/DMSO [25]: 0.432
MEAN MS SIGNAL CMPD 1 6 H [25]: 77526
CMPD 1/DMSO (MCM4 peptide 69 - fSsppqmhssaipldfdvSsplTygtpssr - 98): 0.605
